Results from ChEMBL document CHEMBL3045657, “Synthesis and biological evaluation of naphthalene, furan and pyrrole based chalcones as cytotoxic and antimicrobial agents” (2012).
≈ marks a conversion by molar mass, not a printed value.

What was measured:
Format in all cases: functional
HEp-2 = test: Cytotoxicity against Homo sapiens (human) Hep2 cells assessed as cell growth inhibition at 1 x 10^-5 M after 48 hr by SRB assay; conditions: HEp-2, 48 h, read-out: GI
PC-3 = test: Cytotoxicity against Homo sapiens (human) PC3 cells assessed as cell growth inhibition at 1 x 10^-5 M after 48 hr by SRB assay; conditions: PC-3, 48 h, read-out: GI
Escherichia coli = test: Antibacterial activity against Escherichia coli MTCC 82 after 24 hr by serial tube dilution method; conditions: MTCC 82, 24 h
Aspergillus niger = test: Antifungal activity against Aspergillus niger MTCC 1344 after 48 hr by serial tube dilution method; conditions: MTCC 1344, 48 h
Candida albicans = test: Antifungal activity against Candida albicans MTCC 3018 after 48 hr by serial tube dilution method; conditions: MTCC 3018, 48 h
Pseudomonas aeruginosa = test: Antibacterial activity against Pseudomonas aeruginosa MTCC 2642 after 24 hr by serial tube dilution method; conditions: MTCC 2642, 24 h
Staphylococcus aureus = test: Antibacterial activity against Staphylococcus aureus MTCC 96 after 24 hr by serial tube dilution method; conditions: MTCC 96, 24 h
Salmonella typhi = test: Antibacterial activity against Salmonella enterica subsp. enterica serovar Typhi MTCC 1251 after 24 hr by serial tube dilution method; conditions: MTCC 1251, 24 h
IMR-32 = test: Cytotoxicity against Homo sapiens (human) IMR32 cells assessed as cell growth inhibition at 1 x 10^-5 M after 48 hr by SRB assay; conditions: IMR-32, 48 h, read-out: GI
OVCAR = test: Cytotoxicity against Homo sapiens (human) OVCAR cells assessed as cell growth inhibition at 1 x 10^-5 M after 48 hr by SRB assay; conditions: read-out: GI
Bacillus subtilis = test: Antibacterial activity against Bacillus subtilis MTCC 2451 after 24 hr by serial tube dilution method; conditions: MTCC 2451, 24 h

COc1cc(/C=C/C(=O)c2ccc3ccccc3c2)cc(OC)c1OC
inhibition of growth at 10 µM (HEp-2): 79% | inhibition of growth at 10 µM (PC-3): 84% | MIC (Escherichia coli): 3.9 µg/mL (≈ 11.2 µM) | MIC (Aspergillus niger): 125 µg/mL (≈ 359 µM) | MIC (Candida albicans): 125 µg/mL (≈ 359 µM) | MIC (Pseudomonas aeruginosa): 15.6 µg/mL (≈ 44.8 µM) | MIC (Staphylococcus aureus): 1.9 µg/mL (≈ 5.45 µM) | MIC (Salmonella typhi): 15.6 µg/mL (≈ 44.8 µM) | inhibition of growth at 10 µM (IMR-32): 81% | inhibition of growth at 10 µM (OVCAR): 87% | MIC (Bacillus subtilis): 3.9 µg/mL (≈ 11.2 µM)
